Measurements reported in patent US20160220689A1, “MACROMOLECULES OF DENDRIMER-PLATINUM CONJUGATES” (priority 2013, published 2016).

What was measured:
2008 (ovarian) = assay: Sulforhodamine B (SRB) cell growth inhibition assay; conditions: 72 hours, based on equivalent platinum loading, standard drugs on total molecular weight
Experimental: (§1) Cell growth inhibition was determined using the Sulforhodamine B (SRB) assay (Voigt W., “Sulforhodamine B assay and chemosensitivity” Methods Mol. Med., 2005, 110, 39-48) against various cancer cell lines after 72 hours.
(§2) All solutions were prepared in saline and were stored at −20° C. All values were based on equivalent platinum loading except standard drugs which were calculated on total molecular weight. The results are shown in Table 1 in the micromolar range.

FADU (head and neck) = assay: as above; conditions: 72 hours, based on equivalent platinum loading, standard drugs on total molecular weight
Experimental: as §1, §2

LoVo (colon) = assay: as above; conditions: 72 hours, based on equivalent platinum loading, standard drugs on total molecular weight
Experimental: as §1, §2

OE21 (head and neck) = assay: as above; conditions: 72 hours, based on equivalent platinum loading, standard drugs on total molecular weight
Experimental: as §1, §2

SW620 (colon) = assay: as above; conditions: 72 hours, based on equivalent platinum loading, standard drugs on total molecular weight
Experimental: as §1, §2

[1] = Maximum tolerated dosage in mice; conditions: intravenous, once weekly for three weeks (day 1, 8 and 15), female Balb/c mice
Text: Mice were weighed daily and watched for signs of toxicity. Animals were monitored for up to 10 days following the final drug dose. Any mice exceeding ethical endpoints (>20% body weight loss, poor general health) were immediately sacrificed and observations were noted.

[2] = Toxicity study: blood cell counts in tumor-bearing mice; conditions: Oxaliplatin 5, Compound 1 8.5, Compound 5 9 mg/kg Pt equivalents IV days 1, 8, 15
Experimental: The mice were randomised into 4 groups of n=5 mice, (mean tumor volume ˜90 mm^3) On day one, animals were eye bled in the morning for baseline cell counts and then drug dosing commenced later that day. Drug dosing was performed on days 1, 8 and 15 at the previously determined maximum tolerated doses. All compounds were dissolved in 5% glucose at the concentration required to allow administration of 0.1 mL/10 g body weight. […] Subsequent eye bleeds were performed on days 7, 14 and 26 (Tables 4 A-D, in each case data represented as mean ratio of counts for each time point relative to that at the baseline).

SW620 cells = assay: Xenograft model efficacy study; conditions: IV days 1, 8, 15, Oxaliplatin 5, Compound 1 8.5, Compound 5 9 mg/kg Pt equivalents
Experimental: Thirteen days later, 50 mice with similar sized tumors (˜110 mm^3) were randomized into 4 groups (n=12). All compounds were dissolved in 5% glucose at the concentration required to achieve administration of 0.1 mL/10 g body eight.

[3] = cited from earlier work

Molecule	GI50 (2008 (ovarian)) [µM]	GI50 (FADU (head and neck)) [µM]	GI50 (LoVo (colon)) [µM]	GI50 (OE21 (head and neck)) [µM]	GI50 (SW620 (colon)) [µM]	further results
BHALys[Lys]32[α-Succ-Pro-Val-Gly-Leu-Ile-Gly-amino malonic acid N,O—Pt-diamine]32[ε-PEG1100]32 [Compound 8]	18	71	72	26.5	63	
BHALys[Lys]32[α-Succ-Gly-Leu-Phe-Gly-amino malonic acid-N,O—Pt-1R,2R-(DACH)]32[ε-PEG1100]32 [Compound 6]	3.9	12	8.1	14.5	4.2	
BHALys[Lys]32[α-thiodiglycolic acid-4-oxy-1,1-cyclohexane dicarboxylic acid —Pt-1R,2R-(DACH)]32[ε-PEG2200]32 [Compound 12]	6	8.5	5		2.5	Tolerated Dose [1]: >60 mg/Kg Pt equivalents
BHALys[Lys]32[α-diglycolic acid-5S-oxy-(1R,2R)-diaminocyclohexane-oxalato-Platinum (II)]32[ε-PEG2200]32 [Compound 14]						Tolerated Dose [1]: >35 mg/Kg Pt equivalents
BHALys[Lys]32[α-Succ-Gly-Gly-Gly-amino malonic acid-O,N—Pt-diammine]32[ε-PEG2200]32 [Compound 3]	69	> 300	> 300		> 300	
BHALys[Lys]32[α-Succ-Gly-Gly-Gly-amino malonic acid-O,O′—Pt-diammine]32[ε-PEG2200]32 [Compound 2]	41	200	170	> 30	> 300	
oxaliplatin [reference compound]	0.2	0.9	0.5	1	0.2	Mean lymphocytes counts (baseline corrected) (SEM) ([2]; Day 1 (baseline)): 1.000 (0.125); Mean lymphocytes counts (baseline corrected) (SEM) ([2]; Day 7): 0.240 (0.130); Mean lymphocytes counts (baseline corrected) (SEM) ([2]; Day 14): 0.302 (0.066); Mean lymphocytes counts (baseline corrected) (SEM) ([2]; Day 26): 0.380 (0.154); Mean Tumor Volume (SW620 cells; Day 1): 100.56 mm^3; Mean Tumor Volume (SW620 cells; Day 7): 203.06 mm^3; Mean Tumor Volume (SW620 cells; Day 14): 340.50 mm^3; Mean Tumor Volume (SW620 cells; Day 21): 501.57 mm^3
N.N.O=C([O-])C1(C(=O)[O-])CCC1.[Pt+2] [Carboplatin, carboplatin, reference compound]	4.9	20	23	3.6	33.5	patients developing peripheral neurotoxicity ([3]; patients receiving the drug): 4-6%
BHALys[Lys]32[α-Succ-Gly-Leu-Phe-Gly-amino malonic acid-Pt-1R,2R-(DACH)]32[ε-PEG2200]32 [Compound 5]	2.5	3	3		1.5	Mean Tumor Volume (SW620 cells; Day 1): 100.96 mm^3; Mean Tumor Volume (SW620 cells; Day 7): 196.01 mm^3; Mean Tumor Volume (SW620 cells; Day 14): 303.00 mm^3; Mean Tumor Volume (SW620 cells; Day 21): 363.01 mm^3
BHALys[Lys]32[α-Succ-Gly-Leu-Phe-Gly-amino malonic acid-N,O—Pt-diammine]32[ε-PEG1100]32 [Compound 7]	36	150	220	> 30	170	
N.N.[Cl][Pt][Cl] [Cisplatin, cisplatin, reference compound]	0.5	2	2.8	0.4	3.6	patients with tinnitus and hearing loss ([3]; patients treated with the drug): up to 31%
BHALys[Lys]32[α-Succ-Gly-Gly-Gly-amino malonic acid-N,O—Pt-1R,2R-(DACH)]32[ε-PEG1100]32 [Compound 4]	6.4	9.5	13	7.4	6.7	
BHALys[Lys]32[α-diglycolic acid-5R-oxy-(1R,2R)-diaminocyclohexane-oxalato-Platinum (II)]32[ε-PEG2200]32 [Compound 13]						Tolerated Dose [1]: >35 mg/Kg Pt equivalents
BHALys[Lys]32[α-Succ-Gly-Gly-Gly-amino malonic acid-Pt-1R,2R-(DACH)]32[ε-PEG2200]32 [Compound 1]	4.5	9	7.5		3.5	Mean Tumor Volume (SW620 cells; Day 1): 100.47 mm^3; Mean Tumor Volume (SW620 cells; Day 7): 184.55 mm^3; Mean Tumor Volume (SW620 cells; Day 14): 283.02 mm^3; Mean Tumor Volume (SW620 cells; Day 21): 316.90 mm^3
